# Values quoted from earlier work as cited in patent US5786344A, “Camptothecin drug combinations and methods with reduced side effects” (priority 1995, dated 1998).
# Entries after “also recorded” stand apart in the source; their conditions may differ. Structures can show the parent of a compound that is named as a salt. Where two headings read alike, the source gives them in different places. *1 amine or outer side, *2 acyl side, *3 side chain or, on linkers, in order; H or OH if unused. Where a SMILES comes first, the peptide text is derived from it. Bridges are numbered along the chain shown (N, C = ends). Roman numbers before positions name the chains, in order. [ ]: non-standard residue; d: D form. Actinocin(9to1) = Cc1c2oc3c(C)ccc(C(=O)[*:1])c3nc-2c(C(=O)[*:2])c(N)c1=O; NMeV = CN[C@H](C(=O)O)C(C)C; Sar = CNCC(=O)O
# Legend:
# p-glycoprotein [1] = details: cited from earlier work
# p-glycoprotein [2] = details: renal tubules; cited from earlier work
# [3] = cited from earlier work
# [4] = test system: outwardly-rectifying chloride channel; details: 50 μM; cited from earlier work
# [5] = test system: multidrug resistant (MDR) cells; details: cited from earlier work
# [6] = cited from earlier work; remark: listed apart in the source
# plasma proteins = details: cited from earlier work
# p-glycoprotein [7] = details: cited from earlier work; remark: listed apart in the source
# tumors = details: preclinical and clinical tumors; cited from earlier work
# [8] = test system: breast, ovarian, non-small cell lung, colorectal, gastric and renal cell carcinomas; details: in vitro; cited from earlier work
# [9] = test system: human and murine cell lines; details: 4-6 μM; cited from earlier work
# p-glycoprotein [10] = details: cited from earlier work; remark: listed apart in the source
# [11] = plasma/serum/terminal or elimination half-life
smiles,measurement,setting,value
"Cc1c2oc3c(C)ccc(C(=O)N[C@@H]4C(=O)N[C@H](C(C)C)C(=O)N5CCC[C@H]5C(=O)N(C)CC(=O)N(C)[C@@H](C(C)C)C(=O)O[C@@H]4C)c3nc-2c(C(=O)N[C@@H]2C(=O)N[C@H](C(C)C)C(=O)N3CCC[C@H]3C(=O)N(C)CC(=O)N(C)[C@@H](C(C)C)C(=O)O[C@@H]2C)c(N)c1=O [actinomycin D] (I: T[dV]P[Sar][NMeV] / II: T[dV]P[Sar][NMeV]; ester I:1-I:C, II:1-II:C; linker I:N-II:N via Actinocin(9to1))",inhibition of / interaction with p-glycoprotein,p-glycoprotein [1],inhibitor of p-glycoprotein
same,inhibition of p-glycoprotein-mediated transport,p-glycoprotein [2],inhibitors
same,CNS / blood-brain barrier penetration,"[3]; human, in vivo",does not pass the blood-brain barrier
same,excreted intact into the bile,"[3]; human, in vivo",Half of the dose
same,urinary excretion,"[3]; human, in vivo",10%
same,half-life,[3]; [11],about 36 hr
COc1cccc2c1C(=O)c1c(O)c3c(c(O)c1C2=O)C[C@@](O)(C(C)=O)C[C@@H]3O[C@H]1C[C@H](N)[C@H](O)[C@H](C)O1 [daunomycin],inhibition of / interaction with p-glycoprotein,p-glycoprotein [1],p-glycoprotein inhibitor
same,block of chloride channel / transport associated with p-glycoprotein,[4],blocked
"CC(C)(C)c1ccc(C(O)CCCN2CCC(C(O)(c3ccccc3)c3ccccc3)CC2)cc1 (stereo not drawn) [Terfenadine, 1-Piperidinebutanol, α-[4-(1,1-dimethylethyl)phenyl]-4-(hydroxydiphenylmethyl)-]",drug accumulation and efflux in MDR lines,[5]; MDR lines,augments the accumulation of doxorubicin and inhibits the effluxof rhodamine 123
same,drug accumulation or efflux in sensitive cells,[5]; sensitive cells,no effect
same,peak plasma levels,"[3]; human, in vivo, po",1.5 to 4.5 ng/mL
same,distribution half-life,"[3]; human, in vivo",3.5 h
same,half-life,"[3]; human, in vivo",16 to 23 h
same,oral absorption,[3]; oral,absorbed rapidly and almost completely
same,clinical toxicity,"[6]; human, in vivo",relatively low toxicity profile
same,plasma protein binding,plasma proteins; plasma,97%
"COc1cccc2c1C(=O)c1c(O)c3c(c(O)c1C2=O)C[C@@](O)(C(C)=O)C[C@@H]3O[C@H]1C[C@H](N)[C@H](O)[C@H](C)O1 [daunorubicin, hydrochloride]",inhibition of amphiphilic cation transport,p-glycoprotein [7]; hydrochloride,inhibited
same,inhibition of amphiphilic cation transport,"p-glycoprotein [7]; listed as Daunorubicin, hydrochloride",inhibit
same,distribution half-life,"[3]; human, in vivo, iv",0.75 h
same,oral absorption,"[3]; human, in vivo, po",Oral absorption is poor
same,biliary secretion,"[3]; human, in vivo",~40%
same,half-life,[3]; [11],about 19 hr
"CC[C@@]1(O)C(=O)OCc2c1cc1n(c2=O)Cc2cc3c(N)cccc3nc2-1 [9-AC, 9-amino-20(s)-camptothecin]",antitumor activity,tumors,significant activity of 9-AC against colon cancer
"COc1ccc([C@@H]2Sc3ccccc3N(CCN(C)C)C(=O)[C@@H]2OC(C)=O)cc1 [Diltiazem, benzothiazepin-4(5H)-one, 3-(acetyloxy)-5-[2-(dimethylamino)ethyl]-2,3-dihydro-2-(4-methoxyphenyl)-,(+) -cis-, monohydrochloride]",inhibition of / interaction with p-glycoprotein,p-glycoprotein [1],p-glycoprotein inhibitor
same,bioavailability / dose reaching the systemic circulation,"[3]; human, in vivo, po",40-60%
same,oral absorption,"[3]; human, in vivo, po",80%
same,excreted unchanged (urine),"[3]; human, in vivo",Less than 4%
same,half-life,"[3]; human, in vivo",about 4 hr
same,plasma protein binding,plasma proteins; plasma,70-80%
CC[C@@]1(O)C(=O)OCc2c1cc1n(c2=O)Cc2cc3c(CN(C)C)c(O)ccc3nc2-1 [topotecan],activity in clonogenic assay,[8],"exhibited activity in breast, ovarian, non-small cell lung, colorectal, gastric and renal cell carcinomas"
CC/C(=C(\c1ccccc1)c1ccc(OCCNC)cc1)c1ccccc1 [N-desmethyltamoxifen],enhancement of intracellular concentration of cytotoxic drugs,[9],three-fold to ten-fold
same,concentration,"[3]; read-out: plasma level, oral tamoxifen 150 mg/m2 twice a day after 400 mg/m2 loading dose",6000 nM
CC[C@]1(O)C[C@H]2CN(CCc3c([nH]c4ccccc34)[C@@](C(=O)OC)(c3cc4c(cc3OC)N(C=O)[C@H]3[C@@](O)(C(=O)OC)[C@H](OC(C)=O)[C@]5(CC)C=CCN6CC[C@]43[C@@H]65)C2)C1 [vincristine],inhibition of p-glycoprotein,p-glycoprotein [1]; 10 μM,95%
same,inhibition of / interaction with p-glycoprotein,p-glycoprotein [1],p-glycoprotein inhibitor
same,p-glycoprotein inhibition relative to comparator,"p-glycoprotein [1]; vs verapamil, cyclosporine A, progesterone or anthracycline analogues",more potent than anthracycline analogues
same,oral absorption,[3]; oral,Unpredictable absorption
same,half-life,[3]; plasma or terminal half-life,about 24 hours
same,Cmax,"[3]; read-out: peak concentration in plasma, usual clinical doses",~400 nM
same,plasma protein binding,plasma proteins,bind to plasma proteins
CC[C@]1(O)C[C@@H]2CN(CCc3c([nH]c4ccccc34)[C@@](C(=O)OC)(c3cc4c(cc3OC)N(C)[C@H]3[C@@](O)(C(=O)OC)[C@H](OC(C)=O)[C@]5(CC)C=CCN6CC[C@]43[C@@H]65)C2)C1 [vinblastine],inhibition of / interaction with p-glycoprotein,p-glycoprotein [1],p-glycoprotein inhibitor; also recorded: interacted with p-glycoprotein
same,block of chloride channel / transport associated with p-glycoprotein,[4],blocked
same,inhibition of p-glycoprotein-mediated transport,p-glycoprotein [2],inhibitors
same,"plasma half-life, first phase","[3]; human, in vivo, iv",approximately 1 hours
same,"plasma half-life, second phase","[3]; human, in vivo, iv",~20 h
same,Cmax,"[3]; human, in vivo",~400 nM
same,excreted unchanged (urine),"[3]; human, in vivo",Approximately 15%
same,fecal excretion,"[3]; human, in vivo",about 10%
same,plasma protein binding,plasma proteins,bind to plasma proteins
CC/C(=C(\c1ccccc1)c1ccc(OCCN(C)C)cc1)c1ccccc1 [tamoxifen],enhancement of intracellular concentration of cytotoxic drugs,[9],three-fold to ten-fold
same,bioavailability / dose reaching the systemic circulation,"[3]; human, in vivo, po",25-100%
same,"half-life, single dose","[3]; human, in vivo",18 h
same,"half-life, steady state","[3]; human, in vivo",7 h
same,dose-limiting toxicity,[6]; oral 150 mg/m2 twice a day,without dose-limiting toxicity
"COC(=O)[C@H]1[C@H]2C[C@@H]3c4[nH]c5cc(OC)ccc5c4CCN3C[C@H]2C[C@@H](OC(=O)c2cc(OC)c(OC)c(OC)c2)[C@@H]1OC [reserpine, Yohimban-16-carboxylic acid, 11,17-dimethoxy-18-[(3,4,5-trimethoxybenzoyl)oxy]-, methyl ester, (3β,16β,17α,18β,20α)-]",inhibition of / interaction with p-glycoprotein,p-glycoprotein [1],binds to p-glycoprotein and inhibits photo-labeling
same,inhibition of photoaffinity labeling of p-glycoprotein,p-glycoprotein [1]; photolabeling,showed inhibition
same,inhibition of digoxin transport,p-glycoprotein [10],inhibited
same,oral absorption,"[3]; human, in vivo, po",absorbed poorly and erratically
same,persistence of effects after discontinuation,[6]; oral,≤ 4 weeks
CC(C)NCC(O)COc1cccc2ccccc12 (stereo not shown) [Propranolol],reversal of drug resistance,[5],partially reverse drug resistance
same,bioavailability / dose reaching the systemic circulation,"[3]; human, in vivo, po",about 25%
same,inter-individual variability in plasma concentrations,"[3]; human, in vivo, po",approximately 20 fold
same,CNS / blood-brain barrier penetration,"[3]; human, in vivo",readily enters the CNS
same,volume of distribution,"[3]; human, in vivo",4 L/kg
same,oral absorption,[3]; oral,almost complete absorbed
same,plasma protein binding,plasma proteins; plasma,Approximately 90%
COc1cc2c(c(OC)c1OC)-c1ccc(OC)c(=O)cc1[C@@H](NC(C)=O)CC2 [colchicine],inhibition of / interaction with p-glycoprotein,p-glycoprotein [1],inhibiting p-glycoprotein; also recorded: binding to p-glycoprotein
same,block of chloride channel / transport associated with p-glycoprotein,[4],blocked
same,inhibition of p-glycoprotein-mediated transport,p-glycoprotein [2],inhibitors
same,oral absorption,[3]; oral,well-absorbed
C=C[C@H]1C[N@@]2CC[C@H]1C[C@@H]2[C@@H](O)c1ccnc2ccc(OC)cc12 [quinidine],inhibition of / interaction with p-glycoprotein,p-glycoprotein [1],binds to p-glycoprotein and inhibits photo-labeling
same,inhibition of amphiphilic cation transport,p-glycoprotein [7],inhibit
same,inhibition of digoxin transport,p-glycoprotein [10],inhibited digoxin transport
same,oral absorption,"[3]; human, in vivo, po",90%
same,elimination by hepatic biotransformation,"[3]; human, liver",50-60%
CC(=O)O[C@H]1C(=O)[C@@]2(C)[C@H]([C@H](OC(=O)c3ccccc3)[C@]3(O)C[C@H](OC(=O)[C@H](O)[C@@H](NC(=O)c4ccccc4)c4ccccc4)C(C)=C1C3(C)C)[C@]1(OC(C)=O)CO[C@@H]1C[C@@H]2O [taxol],inhibition of / interaction with p-glycoprotein,p-glycoprotein [1],interacted with p-glycoprotein
same,antitumor activity,tumors,activity against malignant melanoma and carcinoma of the ovary
